Calls of active or inactive are those of the source. Rule as the data show it, for most assays here: actives have a measured EC50 and inactives only a lower limit.
Experiments:
[1] = molecular target: T1, RNA-binding protein pos-1 (Caenorhabditis elegans, UniProt G5EF15); assay: disruptors of C. elegans POS-1 RNA interaction – biochemical, fluorescence polarization, dose response (AID 1964);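 also: purified POS-1 fused to maltose binding protein made in E. coli; potency of compounds blocking POS-1 binding to fluorescent RNA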
T1 sequence (G5EF15 whole entry): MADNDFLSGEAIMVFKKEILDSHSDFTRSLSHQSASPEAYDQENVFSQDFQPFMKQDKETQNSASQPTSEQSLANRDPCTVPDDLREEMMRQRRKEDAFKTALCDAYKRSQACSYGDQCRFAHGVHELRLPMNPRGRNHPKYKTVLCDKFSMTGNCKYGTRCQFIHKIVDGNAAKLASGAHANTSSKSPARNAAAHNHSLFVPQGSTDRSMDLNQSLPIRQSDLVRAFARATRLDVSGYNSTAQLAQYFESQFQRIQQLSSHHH

[2] = molecular target: T2, Zinc finger protein mex-5 (Caenorhabditis elegans, UniProt Q9XUB2); assay: potency of MEX-5 RNA-binding blockers – biochemical, C. elegans, fluorescence polarization, dose response (AID 1960)
T2 sequence (Q9XUB2 whole entry): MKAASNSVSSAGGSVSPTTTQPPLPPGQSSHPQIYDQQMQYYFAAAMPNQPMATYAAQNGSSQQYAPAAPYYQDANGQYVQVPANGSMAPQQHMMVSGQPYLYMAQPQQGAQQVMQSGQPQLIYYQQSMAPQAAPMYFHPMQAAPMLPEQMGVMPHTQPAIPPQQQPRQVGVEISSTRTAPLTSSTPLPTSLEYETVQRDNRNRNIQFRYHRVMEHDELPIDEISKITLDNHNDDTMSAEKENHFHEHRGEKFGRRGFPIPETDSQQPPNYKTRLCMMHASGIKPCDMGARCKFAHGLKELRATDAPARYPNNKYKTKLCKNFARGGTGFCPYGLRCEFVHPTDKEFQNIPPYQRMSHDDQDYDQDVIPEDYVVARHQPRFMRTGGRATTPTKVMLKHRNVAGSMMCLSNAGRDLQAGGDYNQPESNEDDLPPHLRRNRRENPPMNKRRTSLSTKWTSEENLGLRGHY

[3] = molecular target: T3, Corticotropin-releasing factor receptor 2/Corticotropin-releasing factor-binding protein (Homo sapiens, UniProt P24387+Q13324); assay: activators of CRF receptor 2 with binding protein – uHTS hits, confirmation (AID 602473); type: functional; details: read-out: EC50_Mean
T3 sequence (Q13324 whole entry): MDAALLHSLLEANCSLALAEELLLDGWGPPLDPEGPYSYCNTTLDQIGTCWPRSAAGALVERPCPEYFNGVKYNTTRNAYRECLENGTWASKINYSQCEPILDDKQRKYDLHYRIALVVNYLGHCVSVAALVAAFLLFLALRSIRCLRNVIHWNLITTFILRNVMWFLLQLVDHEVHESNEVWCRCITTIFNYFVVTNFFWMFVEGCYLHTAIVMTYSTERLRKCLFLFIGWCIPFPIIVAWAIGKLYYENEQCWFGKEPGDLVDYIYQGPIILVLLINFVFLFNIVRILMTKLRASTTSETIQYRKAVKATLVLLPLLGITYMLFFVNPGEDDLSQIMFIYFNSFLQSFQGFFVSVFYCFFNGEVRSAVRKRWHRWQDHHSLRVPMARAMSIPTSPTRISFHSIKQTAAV
T3 sequence (P24387 whole entry): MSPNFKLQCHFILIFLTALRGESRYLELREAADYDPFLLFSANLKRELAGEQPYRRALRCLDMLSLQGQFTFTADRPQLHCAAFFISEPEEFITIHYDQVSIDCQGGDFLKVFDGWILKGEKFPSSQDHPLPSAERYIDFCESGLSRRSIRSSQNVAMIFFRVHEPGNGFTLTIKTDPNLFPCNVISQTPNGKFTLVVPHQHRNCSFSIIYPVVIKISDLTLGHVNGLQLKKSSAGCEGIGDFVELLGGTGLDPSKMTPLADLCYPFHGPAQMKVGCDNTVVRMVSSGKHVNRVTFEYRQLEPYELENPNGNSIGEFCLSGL

[4] = molecular target: T3, Corticotropin-releasing factor receptor 2/Corticotropin-releasing factor-binding protein; assay: Dose Response confirmation of uHTS hits for small molecule antagonists of the CRF-binding protein and CRF-R2 receptor complex.; type: functional; details: read-out: IC50_Mean
[5] = molecular target: T4, Ubiquitin-conjugating enzyme E2 N (Homo sapiens, UniProt P61088); type: functional;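 also: Dose-response confirmation in a TR-FRET assay detecting UBC13-driven polyubiquitin chain formation, inhibition measured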
T4 sequence (P61088 whole entry): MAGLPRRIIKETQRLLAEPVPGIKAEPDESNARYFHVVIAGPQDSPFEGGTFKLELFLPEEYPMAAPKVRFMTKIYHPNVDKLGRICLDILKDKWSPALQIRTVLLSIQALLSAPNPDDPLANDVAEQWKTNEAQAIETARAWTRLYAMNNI

[6] = fluconazole-exposed Candida albicans growth modulators – fluorescence, retest, confirmation (AID 2467); type: functional, cell-based
[7] = NIH-3T3 fibroblast cytotoxicity, dose response, cytotoxicity control, cell-based, fluorescence, Alamar Blue, secondary assay (AID 2327); type: functional;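 also: NIH-3T3 mouse fibroblasts cultured with fluconazole at 8 µg/mL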
[8] = molecular target: Heat shock protein HSP 90-alpha (Homo sapiens, UniProt P07900); type: functional, organism-based
[9] = reduction of Shn3 3'UTR-driven luciferase in osteoblasts – cell-based, Clone20 osteoblasts, firefly luciferase, cherry-picked, dose response (AID 624132); type: functional;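 also: firefly luciferase luminescence from reporter carrying the Shn3 3'UTR in osteoblasts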
[10] = non-specific 3'UTR reporter inhibition in Clone20-Shn3RL – cell-based, Renilla luciferase, cherry-picked, counter-screen for Shn3 inhibitor project, dose response (AID 624133); type: functional
[11] = loss of viability in HepG2 cells – cell-based, CellTiter-Glo, cherry-picked, cytotoxicity control for Shn3 inhibitor project, dose response (AID 624134); type: functional
[12] = molecular target: T5, Replicative DNA helicase DnaB (Mycobacterium tuberculosis, UniProt P9WMR3); assay: DnaB intein splicing inhibitors, dose response, biochemical, cell-free fluorescence (AID 449749); type: functional
T5 sequence (P9WMR3 whole entry): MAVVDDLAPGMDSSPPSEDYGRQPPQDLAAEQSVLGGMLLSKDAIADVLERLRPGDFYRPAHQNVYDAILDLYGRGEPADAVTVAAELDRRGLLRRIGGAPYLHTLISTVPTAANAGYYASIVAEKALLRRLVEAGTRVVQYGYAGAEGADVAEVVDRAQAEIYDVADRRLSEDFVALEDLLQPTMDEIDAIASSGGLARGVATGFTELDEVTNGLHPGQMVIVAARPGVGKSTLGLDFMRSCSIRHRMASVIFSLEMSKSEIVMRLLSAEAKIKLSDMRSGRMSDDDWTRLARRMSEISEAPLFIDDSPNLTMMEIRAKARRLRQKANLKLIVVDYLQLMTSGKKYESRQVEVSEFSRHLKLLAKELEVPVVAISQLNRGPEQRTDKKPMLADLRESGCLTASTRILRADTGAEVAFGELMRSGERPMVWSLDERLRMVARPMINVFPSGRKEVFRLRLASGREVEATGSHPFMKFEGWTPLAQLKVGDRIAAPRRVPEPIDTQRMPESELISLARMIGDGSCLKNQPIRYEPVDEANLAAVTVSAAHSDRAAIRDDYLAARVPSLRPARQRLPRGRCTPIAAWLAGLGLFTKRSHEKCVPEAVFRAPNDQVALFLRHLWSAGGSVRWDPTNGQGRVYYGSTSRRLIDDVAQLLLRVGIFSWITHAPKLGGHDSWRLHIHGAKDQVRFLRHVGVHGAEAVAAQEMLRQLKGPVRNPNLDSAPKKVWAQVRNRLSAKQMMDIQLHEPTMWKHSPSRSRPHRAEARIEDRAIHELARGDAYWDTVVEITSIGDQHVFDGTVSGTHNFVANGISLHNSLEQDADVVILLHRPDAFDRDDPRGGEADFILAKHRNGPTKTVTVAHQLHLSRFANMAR

Protein RecA = molecular target: T6, Protein RecA (Mycobacterium tuberculosis, UniProt P9WHJ3); assay: Fluorescence Cell-Free Homogeneous Dose Retest to Identify Inhibitors of RecA-Intein Splicing Activity. [Related pubchem assays (depositor defined):AID2097, AID2223, AID489010, AID492950]; type: functional
T6 sequence (P9WHJ3 whole entry): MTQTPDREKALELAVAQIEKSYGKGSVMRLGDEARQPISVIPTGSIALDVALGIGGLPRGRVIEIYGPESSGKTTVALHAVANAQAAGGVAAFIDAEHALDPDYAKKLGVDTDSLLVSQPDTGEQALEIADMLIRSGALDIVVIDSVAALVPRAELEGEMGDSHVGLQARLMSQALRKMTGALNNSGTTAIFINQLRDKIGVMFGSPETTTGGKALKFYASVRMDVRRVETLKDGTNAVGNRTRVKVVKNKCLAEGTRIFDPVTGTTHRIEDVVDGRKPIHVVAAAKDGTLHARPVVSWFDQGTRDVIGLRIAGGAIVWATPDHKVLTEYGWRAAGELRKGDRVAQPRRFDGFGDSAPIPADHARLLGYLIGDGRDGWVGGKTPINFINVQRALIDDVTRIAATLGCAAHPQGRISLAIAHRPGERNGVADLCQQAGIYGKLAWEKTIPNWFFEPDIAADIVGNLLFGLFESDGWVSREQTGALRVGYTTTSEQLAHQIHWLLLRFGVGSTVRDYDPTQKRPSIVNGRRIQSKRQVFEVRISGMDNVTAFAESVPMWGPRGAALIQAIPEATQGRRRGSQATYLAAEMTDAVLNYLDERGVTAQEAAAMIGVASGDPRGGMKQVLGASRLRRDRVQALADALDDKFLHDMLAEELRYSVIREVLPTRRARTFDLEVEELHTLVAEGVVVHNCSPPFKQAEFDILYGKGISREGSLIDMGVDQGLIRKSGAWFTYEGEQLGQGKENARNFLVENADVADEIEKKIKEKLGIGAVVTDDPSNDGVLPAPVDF

[13] = system: Streptococcus sp. 'group A'; assay: Streptococcus pyogenes SK(-)GAS viability under kanamycin – luminescence, BacTiterGlo, confirmation, counter-screen for streptokinase expression inhibitor project, dose response (AID 1900); type: functional, organism-based
Streptokinase A = molecular target: T7, Streptokinase A (Streptococcus pyogenes serotype M1, UniProt P10520); assay: viability-normalized secreted streptokinase activity reduction – plasminogen activation absorbance, OD405, dose response (AID 1914); type: functional, Streptococcus pyogenes M1 GAS;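 also: secreted streptokinase activity via plasminogen activation per viability signal from cell pellet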
T7 sequence (P10520 whole entry): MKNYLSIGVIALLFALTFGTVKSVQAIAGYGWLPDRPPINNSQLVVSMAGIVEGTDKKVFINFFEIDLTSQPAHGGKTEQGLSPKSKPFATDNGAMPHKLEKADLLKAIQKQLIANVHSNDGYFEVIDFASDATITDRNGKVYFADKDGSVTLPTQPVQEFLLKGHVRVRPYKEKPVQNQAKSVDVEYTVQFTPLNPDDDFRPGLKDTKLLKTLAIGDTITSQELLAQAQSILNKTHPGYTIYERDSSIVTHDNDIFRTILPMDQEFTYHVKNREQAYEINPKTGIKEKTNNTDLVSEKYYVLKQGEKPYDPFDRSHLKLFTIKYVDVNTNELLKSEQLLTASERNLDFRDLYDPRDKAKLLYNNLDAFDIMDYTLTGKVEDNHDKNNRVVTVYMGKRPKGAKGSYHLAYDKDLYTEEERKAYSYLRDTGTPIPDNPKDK

Streptococcus = assay: GAS UMAA2166 growth inhibition – luminescence, BacTiterGlo, counter-screen for streptokinase expression inhibitor project, dose response (AID 1915); type: functional, organism-based;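 also: potency for reduction of bacterial viability or growth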
[14] = Luminescence Cell-Based Dose Retest to Confirm Inhibitors of Cancer Stem Cells. [Related pubchem assays (depositor defined):AID2717, AID2721]; type: functional, Homo sapiens

CN(C)c1ccc(-c2nnc(-c3ccc(S(=O)(=O)C(F)F)cc3)o2)cc1
EC50 [1]: 55.7 µM (inconclusive) | EC50 [2]: 31.4 µM (inconclusive)

Cc1ccc(-n2c(Cl)c(Cl)[nH]c(=O)c2=O)cc1
EC50 [3]: > 53 µM (inactive) | IC50 [4]: > 47.1 µM (inactive)

O=C1/C(=C/c2cccc([N+](=O)[O-])c2)CSc2ccc(Cl)cc21
IC50 [5]: > 20 µM (inactive)

CN1CCN(C(c2ccc(Br)cc2)c2cc(Cl)c3cccnc3c2O)CC1 (configuration not stated)
EC50 [6]: 0.492 µM (active) | EC50 [7]: 4.78 µM (inconclusive) | AC50 [8]: 0.609 µM (active) | AC50 [9]: 3.61 µM (active) | AC50 [10]: 6.28 µM (active) | AC50 [11]: 34.9 µM (active) | AC50 [12]: 14.3 µM (active) | EC50 (Protein RecA): 3.22 µM (active)

COc1ccc(OCC(=O)NNC(=S)NC(=O)c2ccc([N+](=O)[O-])cc2)cc1
IC50 [5]: > 20 µM (inactive)

CCc1nnc(N=C(S)Nc2ccccc2)s1
EC50 [3]: > 53 µM (inactive) | IC50 [4]: > 47.1 µM (inactive)

O=C(C[n+]1nc(CNc2ccc(Br)cc2)n2c1CCCCC2)c1ccc([N+](=O)[O-])cc1
IC50 [5]: > 20 µM (inactive)

C#CCOCCOCCOCCNc1nc(N2CCN(C(=O)[C@H]([C@@H](C)CC)n3cc(CCCN=C(N)N)nn3)CC2)nc(N2CCN(C(=O)[C@H](CCCCN)n3cc(CCCC)nn3)CC2)n1
IC50 [5]: > 20 µM (inactive)

COc1cc(Cl)c(C)cc1NC(=O)CSc1ccc(C)cc1
EC50 [3]: > 53 µM (inactive) | IC50 [4]: > 47.1 µM (inactive)

C=CCOn1c(=O)c(-c2cc3ccccc3o2)[n+]([O-])c2ccccc21
EC50 [1]: 28.3 µM (inconclusive) | EC50 [2]: 69.7 µM (inconclusive)

CC1CCN(c2nc3ccccc3nc2C(C#N)C(=O)NC2CCCCC2)CC1 (configuration not stated)
EC50 [1]: > 300 µM (not active) | EC50 [2]: > 300 µM (not active) | EC50 ([13]; read-out: EC50): 7.52 µM (active) | EC50 (Streptokinase A): 26.2 µM (active) | EC50 (Streptococcus): 18.3 µM (active)

Cc1c(CN2CCCCC2)c(O)n(CCCO)c(=O)c1C#N
EC50 [1]: > 300 µM (not active) | EC50 [2]: > 300 µM (not active)

C=CCNC(S)=NNC(=O)c1ccc(OCC)cc1
EC50 [3]: > 53 µM (inactive) | IC50 [4]: > 47.1 µM (inactive)

CC1CCCN(CCCNC(=O)CN2C(=O)CSc3ccc(S(=O)(=O)N4CCOCC4)cc32)C1 (configuration not stated)
EC50 [3]: > 53 µM (inactive) | IC50 [4]: > 47.1 µM (inactive)

CC(NC(=O)COC(=O)C1(C)CC1(Cl)Cl)c1ccccc1 (configuration not stated)
EC50 [3]: > 53 µM (inactive) | IC50 [4]: > 47.1 µM (inactive)

CCOC(=O)/C=c1\s/c(=C\c2ccc(C#N)cc2)c(=O)n1CC(=O)NCc1ccco1
EC50 [1]: > 300 µM (not active) | EC50 [2]: > 300 µM (not active)

CC/C(=C(\c1ccccc1)c1ccc(OCCN(C)C)cc1)c1ccccc1 [TAMOXIFEN]
IC50 [5]: > 20 µM (inactive) | EC50 [13]: 6.5 µM (active) | EC50 (Streptokinase A): > 150 µM (not active) | EC50 (Streptococcus): 21.8 µM (active) | AC50 [14]: 5.52 µM (active)

Reference: ChEMBL document CHEMBL1201862, “PubChem BioAssay data set” (2004)
